Earlier results, collected in patent US20120141434A1, “Methods for Selecting Expanded Stem Cell Populations” (Gamida Cell Ltd., priority 2009, published 2012).

How the values were obtained:
NOD/SCID mice = details: TEPA treated cultures compared to untreated cultures
[1] = system: cord blood-derived progenitor cells; details: three-week treatment of cord blood cultures supplemented with early acting cytokines

Structure (SMILES): NCCNCCNCCNCCN [TEPA, tetraethylenepentamine]
- engraftment potential in NOD/SCID mice (NOD/SCID mice): increased
- ex vivo expansion of CD34+ cells [1]: prolonged and extensive
- percentages of early progenitors (CD34+CD38−, CD34+CD38−Lin-) [1]: higher
